Patent US9234231B2, “Screening tool for anti-inflammatory drug discovery comprising the FPR2/ALX gene promoter” (Università degli Studi “G. D'Annunzio” Chieti-Pescara, priority 2011, dated 2016)

Columns and labels:
Format in all cases: cell-based, human
FPR2/ALX protein = FPR2/ALX protein expression by flow cytometry in MDA-MB231 cells; settings: 10 μM 5-aza-dC, 72 h, Δ MFI vs untreated cells
FPR2/ALX mRNA = FPR2/ALX mRNA expression by real time PCR in MDA-MB231 cells
FPR2/ALX promoter = assay: Luciferase reporter gene assay of FPR2/ALX promoter constructs P-1500 and P-346 in MDA-MB231 cells; settings: MDA-MB231 cells transfected 24 h, then exposed 24 h; LXA4 10 nM, dexametasone 1 μM, IFN-γ 5-100 nM, LPS 500 nM; vs vehicle
Procedure: Left panel. MDA-MB231 cells were transfected with P-1500 or P-346. Twenty four hours post-transfection, cells were exposed to ethanol vehicle or 10 nM LXA4 for additional 24 h. Bars depict mean±S.D. of n=4 carried out with duplicates. *, P=0.018; **, P=0.0076 vs vehicle-treated cells. Right panel. MDA-MB231 cells were exposed to LXA4 (10 nM) for the indicated time. FPR2/ALX mRNA was quantitated by real-time PCR. Bars show mean±S.D. of n=3. *, P=0.05.
Having localized the TSS, a 1500 bp fragment of human genomic DNA (−1449/+51 from the TSS) was amplified by PCR, cloned into the promoterless pGL3 vector containing the luciferase reporter gene. For this purpose, Genomic DNA was extracted from the THP1 cells using the Wizard Genomic DNA Purification Kit (Promega, Milan, Italy). Two primers, (For 1500 bp e Rev 1500 bp, Table 1) were designed on the basis of genomic DNA sequence of 5′-flanking region of the FPR2/ALX gene to amplify a section of DNA starting −1449 bp upstream of the identified transcription start site (+1). In addition to the template (100 ng of genomic DNA) and primers For 1500 bp and Rev 1500 bp (100 ng), the reaction mixture contained 0.2 mM dNTPs, Pfu DNA polymerase buffer and 0.05 units of Jumpstart Taq DNA polymerase (Sigma-Aldrich), PCR consisted of 35 cycles of amplification (30 seconds at 94° C., 30 s at 52° C., and 120 seconds at 72° C.). PCR products were recovered from low melting agarose gel and used as template in PCR reactions using primers For 1500 and Rev 1500, added of Kpn I and Xho I restriction sites, respectively (Table 1). PCR products were resolved by 1.5% agarose gel elecrophoresis, purified and ligated into the pGL3-basic reporter vector, which was previously digested with Kpn I and Xho I restriction endonuclease. […] The promoter activity of the construct was analyzed by transfection into MCF7 and MDA-MB231 cells. […] A slightly higher activity was detected in MDA-MB231 cells (18 fold over empty vector) compared to MCF7 cells (14 fold over empty vector). […]

Compound: Nc1ncn([C@H]2C[C@H](O)[C@@H](CO)O2)c(=O)n1 [5-aza-dC, 5-aza-2′-deoxycytidine]
- increase in FPR2/ALX protein expression (FPR2/ALX protein): ~3 fold
- increase in FPR2/ALX mRNA expression (FPR2/ALX mRNA; MDA-MB231 cells, 10 μM 5-aza-dC, 72 h, vs untreated cells): ~10 fold

Compound: CCCCCC(O)/C=C/C=C\C=C\C=C\C(O)C(O)CCCC(=O)O (stereo not drawn) [LXA4, 5,6,155-trihydroxy-7,9,11,13-trans-1′-cis-eicosatetraenoic acid]
- FPR2/ALX mRNA levels (FPR2/ALX mRNA; MDA-MB231 cells exposed to LXA4 10 nM, real-time PCR): enhanced
- luciferase activity of P-1500 and P-346 (FPR2/ALX promoter): significantly enhanced

Compound: C[C@@H]1C[C@H]2[C@@H]3CCC4=CC(=O)C=C[C@]4(C)[C@@]3(F)[C@@H](O)C[C@]2(C)[C@@]1(O)C(=O)CO [dexametasone]
- luciferase activity of P-1500 and P-346 (FPR2/ALX promoter): did not give appreciable changes

Compound: IFN-γ: gamma interferon, cytokine
- luciferase activity of P-1500 and P-346 (FPR2/ALX promoter): did not give appreciable changes
